Inhibition and IC50 data for 16 compounds are collected here from US10172868B2, “Substituted quinazolines for inhibiting kinase activity” (NeuPharma, Inc., priority 2013, dated 2019).

Bounds are passed on as bounds.

One assay deals with EGFR (ErbB1) (Homo sapiens (Human), UniProt P00533). The assay can be described thus: Z'-LYTE kinase inhibition assay, EGFR. It counts as biochemical. As to conditions: for inhibition at 1 µM: read-out: % inhibition against EGFR (Compound at 1 μM); for inhibition at 0.041 µM: read-out: % inhibition against EGFR (Compound at 0.041 μM); for IC50: read-out: IC50 against EGFR. The procedure, abridged: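 IC50 values derived from 10-point, 3-fold compound dilution series (1% DMSO final) using Z'-LYTE fluorescence readout after 60-min development. Reaction: EGFR (1.1-5.25 ng) with 2 μM peptide, 60 min at room temperature in HEPES pH 7.5 buffer containing MgCl2, MnCl2, EGTA, DTT and BRIJ-35.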
Sequence of EGFR (ErbB1) (P00533 25-1210): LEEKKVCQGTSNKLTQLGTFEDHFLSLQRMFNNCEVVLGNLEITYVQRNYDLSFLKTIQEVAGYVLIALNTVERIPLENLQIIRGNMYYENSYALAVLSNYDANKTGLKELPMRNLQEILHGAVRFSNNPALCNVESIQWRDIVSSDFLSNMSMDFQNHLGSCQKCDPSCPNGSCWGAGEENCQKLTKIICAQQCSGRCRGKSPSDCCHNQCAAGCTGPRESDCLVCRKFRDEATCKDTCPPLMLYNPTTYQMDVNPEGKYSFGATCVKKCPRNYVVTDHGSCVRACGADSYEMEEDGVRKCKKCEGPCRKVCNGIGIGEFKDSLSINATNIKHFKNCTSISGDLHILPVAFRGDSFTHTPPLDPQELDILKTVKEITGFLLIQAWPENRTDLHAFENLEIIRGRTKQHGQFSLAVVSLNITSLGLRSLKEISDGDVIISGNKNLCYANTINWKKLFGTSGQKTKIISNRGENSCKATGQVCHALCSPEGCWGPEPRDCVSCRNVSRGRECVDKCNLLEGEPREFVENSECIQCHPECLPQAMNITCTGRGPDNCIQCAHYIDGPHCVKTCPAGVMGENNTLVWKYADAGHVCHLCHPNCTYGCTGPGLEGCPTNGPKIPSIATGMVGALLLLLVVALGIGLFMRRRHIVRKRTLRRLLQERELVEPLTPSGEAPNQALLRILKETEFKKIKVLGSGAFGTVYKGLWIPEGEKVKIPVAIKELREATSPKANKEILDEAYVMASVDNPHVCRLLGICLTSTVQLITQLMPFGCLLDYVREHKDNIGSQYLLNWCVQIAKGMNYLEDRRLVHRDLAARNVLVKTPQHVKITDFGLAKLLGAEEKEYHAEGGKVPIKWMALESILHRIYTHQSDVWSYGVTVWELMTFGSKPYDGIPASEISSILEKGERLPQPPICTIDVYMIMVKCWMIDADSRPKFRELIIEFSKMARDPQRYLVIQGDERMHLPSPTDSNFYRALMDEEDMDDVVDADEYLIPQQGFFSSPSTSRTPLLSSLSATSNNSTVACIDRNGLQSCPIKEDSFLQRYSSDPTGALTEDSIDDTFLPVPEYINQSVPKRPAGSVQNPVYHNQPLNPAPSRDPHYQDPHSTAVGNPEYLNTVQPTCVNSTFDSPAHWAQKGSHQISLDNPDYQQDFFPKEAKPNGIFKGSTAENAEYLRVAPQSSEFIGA

The next assay has as its target EGFR (ErbB1) T790M L858R (Homo sapiens (Human), UniProt P00533, L858R/T790M). Put plainly: Z'-LYTE kinase inhibition assay, EGFR L858R/T790M. It counts as biochemical. As to conditions: for inhibition at 0.0137 µM: read-out: % inhibition against EGFR L858R/T790M (Compound at 0.0137 μM); for inhibition at 1 µM: read-out: % inhibition against EGFR L858R/T790M (Compound at 1 μM); for IC50: read-out: IC50 against EGFR L858R/T790M. The procedure, abridged:
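IC50 taken from 10-point, 3-fold serial dilutions tested in 1% DMSO. The mutant kinase and peptide were prepared in HEPES pH 6.5 buffer with BRIJ-35, MgCl2, EGTA and NaN3, then reacted with ATP for 1 h at room temperature. Development reagent was added for a further hour before the fluorescence readout.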

Another assay has as its target BTK (Homo sapiens (Human), UniProt Q06187). The assay can be described thus: Z'-LYTE kinase inhibition assay, BTK. In kind it is biochemical. Particulars: for inhibition at 0.041 µM: compound at 0.041 μM, read-out: % inhibition against BTK; for IC50: read-out: IC50 against BTK. The procedure, abridged: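 Z'-LYTE FRET assay with Tyr 01 peptide in 50 mM HEPES pH 7.5, 10 mM MgCl2, 1 mM EGTA, 0.01% BRIJ-35. Compounds in 1% DMSO were tested as 10-point, 3-fold titrations.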

The next assay has as its system HCC827 cells. Put plainly: cells. As to conditions: Homo sapiens, HCC827, 72 h, read-out: IC50 in HCC827 cells.
A further assay deals with H1975 cells. Put plainly: Inhibition of cancer cell growth, MTT assay, H1975. As to conditions: Homo sapiens, NCI-H1975, 72 h, read-out: IC50 in H1975 cells.

Sequence of EGFR (ErbB1) T790M L858R (P00533 25-1210 T790M/L858R): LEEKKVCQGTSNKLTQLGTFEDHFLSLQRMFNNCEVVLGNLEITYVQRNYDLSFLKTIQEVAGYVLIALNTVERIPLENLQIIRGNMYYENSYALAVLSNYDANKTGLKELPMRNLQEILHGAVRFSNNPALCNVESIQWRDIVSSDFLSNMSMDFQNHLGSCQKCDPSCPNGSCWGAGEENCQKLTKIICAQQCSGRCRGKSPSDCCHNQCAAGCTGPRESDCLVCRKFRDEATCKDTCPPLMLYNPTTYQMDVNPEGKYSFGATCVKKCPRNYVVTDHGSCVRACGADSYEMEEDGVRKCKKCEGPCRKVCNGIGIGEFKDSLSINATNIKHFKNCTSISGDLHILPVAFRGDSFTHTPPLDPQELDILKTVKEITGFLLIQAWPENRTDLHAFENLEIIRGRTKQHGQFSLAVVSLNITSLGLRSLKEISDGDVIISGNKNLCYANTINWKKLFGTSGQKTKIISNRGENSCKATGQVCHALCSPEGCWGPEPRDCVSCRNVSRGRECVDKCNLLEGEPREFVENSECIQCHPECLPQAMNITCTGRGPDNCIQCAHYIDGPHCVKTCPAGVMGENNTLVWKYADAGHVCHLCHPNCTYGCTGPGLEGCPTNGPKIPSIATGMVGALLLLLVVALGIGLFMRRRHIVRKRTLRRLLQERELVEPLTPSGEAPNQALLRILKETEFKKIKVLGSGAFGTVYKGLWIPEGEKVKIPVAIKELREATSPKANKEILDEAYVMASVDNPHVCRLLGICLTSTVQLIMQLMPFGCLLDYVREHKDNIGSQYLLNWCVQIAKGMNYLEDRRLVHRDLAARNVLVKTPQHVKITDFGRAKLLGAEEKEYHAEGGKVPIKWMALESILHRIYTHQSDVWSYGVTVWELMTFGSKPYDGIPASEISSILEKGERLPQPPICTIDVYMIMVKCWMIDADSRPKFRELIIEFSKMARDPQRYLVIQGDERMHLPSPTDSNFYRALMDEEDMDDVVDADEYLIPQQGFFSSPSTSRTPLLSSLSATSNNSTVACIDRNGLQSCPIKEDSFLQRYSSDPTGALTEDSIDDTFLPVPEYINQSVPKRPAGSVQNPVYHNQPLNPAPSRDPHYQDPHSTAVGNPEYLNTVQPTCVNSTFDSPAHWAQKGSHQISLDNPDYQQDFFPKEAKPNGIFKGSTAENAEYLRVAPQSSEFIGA
Sequence of BTK (Q06187 whole entry): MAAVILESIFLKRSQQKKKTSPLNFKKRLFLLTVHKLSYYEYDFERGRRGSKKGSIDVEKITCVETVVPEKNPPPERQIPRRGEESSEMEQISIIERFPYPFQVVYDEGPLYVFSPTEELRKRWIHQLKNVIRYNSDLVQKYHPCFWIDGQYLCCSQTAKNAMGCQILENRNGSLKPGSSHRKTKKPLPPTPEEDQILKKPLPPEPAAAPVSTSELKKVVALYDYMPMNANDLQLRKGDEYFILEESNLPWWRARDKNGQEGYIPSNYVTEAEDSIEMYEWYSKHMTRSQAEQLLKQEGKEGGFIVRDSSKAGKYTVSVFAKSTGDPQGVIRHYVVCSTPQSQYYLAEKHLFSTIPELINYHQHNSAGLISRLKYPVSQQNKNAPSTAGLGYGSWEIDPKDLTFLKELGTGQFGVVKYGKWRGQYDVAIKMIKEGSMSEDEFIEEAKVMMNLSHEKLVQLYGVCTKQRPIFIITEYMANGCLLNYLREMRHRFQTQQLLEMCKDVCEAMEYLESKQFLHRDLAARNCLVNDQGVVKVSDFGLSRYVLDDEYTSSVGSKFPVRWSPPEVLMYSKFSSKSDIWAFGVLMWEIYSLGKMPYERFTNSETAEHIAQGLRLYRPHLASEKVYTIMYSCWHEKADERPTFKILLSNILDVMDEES

In the case of `C=CC(=O)Nc1cccc(-c2cccc3cnc(Nc4ccc(N5CCOCC5)cc4)nc23)c1` [Example C001, N-(3-(2-((4-morpholinophenyl)amino)quinazolin-8-yl)phenyl)acrylamide], the inhibition at 1 µM at EGFR (ErbB1) and at EGFR (ErbB1) T790M L858R was over 50% throughout. The inhibition at 0.0137 µM on EGFR (ErbB1) T790M L858R is under 50%. Moreover, the IC50 was under 100 nM on EGFR (ErbB1) T790M L858R, under 100 nM in the assay with HCC827 cells and 100 to 500 nM in the assay on H1975 cells. At BTK, the inhibition at 0.041 µM is over 50%.

Take `C=CC(=O)Nc1cccc(-c2cccc3cnc(Nc4ccc(N5CCOCC5)cc4OC)nc23)c1` [Example C002, N-(3-(2-((2-methoxy-4-morpholinophenyl)amino)quinazolin-8-yl)phenyl)acrylamide]: the inhibition at 1 µM at EGFR (ErbB1) was under 50%; at EGFR (ErbB1) T790M L858R, over 50%. In the assay on HCC827 cells, the IC50 is 100 to 500 nM.

For the compound `C=CC(=O)Nc1cccc(-c2cccc3cnc(Nc4ccc(N5CCN(C)CC5)cc4OC)nc23)c1` [Example C003, N-(3-(2-((2-methoxy-4-(4-methylpiperazin-1-yl)phenyl)amino)quinazolin-8-yl)phenyl)acrylamide], the inhibition at 1 µM on EGFR (ErbB1) and on EGFR (ErbB1) T790M L858R was over 50% throughout. The inhibition at 0.0137 µM on EGFR (ErbB1) T790M L858R was over 50%. In addition, the IC50 on EGFR (ErbB1) T790M L858R was under 100 nM; in the assay on HCC827 cells, under 100 nM; in the assay with H1975 cells it was 100 to 500 nM.

On to `c1ccc(-c2cccc3cnc(Nc4ccc(N5CCOCC5)cc4)nc23)cc1` [Example C004, N-(4-morpholinophenyl)-8-phenylquinazolin-2-amine], for which the inhibition at 1 µM was under 50% at EGFR (ErbB1) and over 50% at EGFR (ErbB1) T790M L858R. Also, the inhibition at 0.041 µM at BTK is under 50%. The IC50 in the assay with HCC827 cells and in the assay with H1975 cells was over 500 nM throughout.

For the compound `C=CC(=O)Nc1cccc(-c2nccc3c(N)nc(Nc4ccc(N5CCOCC5)cc4)nc23)c1` [Example C005, N-(3-(4-amino-2-((4-morpholinophenyl)amino)pyrido[3,4-d]pyrimidin-8-yl)phenyl)acrylamide], the inhibition at 1 µM at EGFR (ErbB1) is over 50%; on EGFR (ErbB1) T790M L858R it was under 50%. Besides, the inhibition at 0.041 µM at BTK is over 50%. The IC50 is 100 to 500 nM in the assay with HCC827 cells and over 500 nM in the assay with H1975 cells.

Consider `Fc1ccc(Cl)cc1-c1cccc2cnc(Nc3ccc(N4CCOCC4)cc3)nc12` [Example C007, 8-(5-chloro-2-fluorophenyl)-N-(4-morpholinophenyl)quinazolin-2-amine], for which the inhibition at 1 µM on EGFR (ErbB1) and on EGFR (ErbB1) T790M L858R was under 50% in each case. For the same compound, the IC50 in the assay on HCC827 cells and in the assay on H1975 cells was over 500 nM each time.

On to `Clc1cccc(-c2cccc3cnc(Nc4ccc(N5CCOCC5)cc4)nc23)c1` [Example C008, 8-(3-chlorophenyl)-N-(4-morpholinophenyl)quinazolin-2-amine], for which the inhibition at 1 µM at EGFR (ErbB1) and at EGFR (ErbB1) T790M L858R was under 50% each time. The inhibition at 0.041 µM on BTK is under 50%. In addition, the IC50 with HCC827 cells and with H1975 cells was over 500 nM each time.

On to `Fc1cccc(-c2cccc3cnc(Nc4ccc(N5CCOCC5)cc4)nc23)c1` [Example C009, 8-(3-fluorophenyl)-N-(4-morpholinophenyl)quinazolin-2-amine], for which the inhibition at 1 µM on EGFR (ErbB1) and at EGFR (ErbB1) T790M L858R was under 50% throughout. The inhibition at 0.041 µM on BTK is under 50%. In addition, the IC50 in the assay on HCC827 cells and in the assay on H1975 cells was over 500 nM throughout.

On to `Fc1ccccc1-c1cccc2cnc(Nc3ccc(N4CCOCC4)cc3)nc12` [Example C010, 8-(2-fluorophenyl)-N-(4-morpholinophenyl)quinazolin-2-amine], for which the inhibition at 1 µM on EGFR (ErbB1) and at EGFR (ErbB1) T790M L858R was under 50% in each case. Besides, the IC50 with HCC827 cells and with H1975 cells was over 500 nM throughout.

For the compound `Clc1ccccc1-c1cccc2cnc(Nc3ccc(N4CCOCC4)cc3)nc12` [Example C011, 8-(2-chlorophenyl)-N-(4-morpholinophenyl)quinazolin-2-amine], the inhibition at 1 µM on EGFR (ErbB1) and on EGFR (ErbB1) T790M L858R was under 50% throughout. The IC50 with HCC827 cells and with H1975 cells was over 500 nM each time.

As for `C=CC(=O)Nc1cccc(-c2nccc3cnc(Nc4ccc(N5CCOCC5)cc4)nc23)c1` [Example C012, N-(3-(2-((4-morpholinophenyl)amino)pyrido[3,4-d]pyrimidin-8-yl)phenyl)acrylamide], the inhibition at 1 µM on EGFR (ErbB1) was under 50%; on EGFR (ErbB1) T790M L858R, over 50%. The inhibition at 0.041 µM on BTK is over 50%. In addition, the IC50 in the assay with HCC827 cells is under 100 nM; with H1975 cells, 100 to 500 nM.

For the compound `C=CC(=O)Nc1cccc(-c2cccc3cnc(Nc4ccc(N5CCN(C)CC5)cc4)nc23)c1` [Example C021, N-(3-(2-((4-(4-methylpiperazin-1-yl)phenyl)amino)quinazolin-8-yl)phenyl)acrylamide], the inhibition at 0.041 µM on EGFR (ErbB1) and at BTK was over 50% throughout. The IC50 on EGFR (ErbB1), on EGFR (ErbB1) T790M L858R, at BTK, with HCC827 cells and with H1975 cells was under 100 nM in each case.

Turning to `C=CC(=O)Nc1cccc(-c2cccc3cnc(Nc4ccc(N5CCN(C)CC5)nc4)nc23)c1` [Example C041, N-(3-(2-((6-(4-methylpiperazin-1-yl)pyridin-3-yl)amino)quinazolin-8-yl)phenyl)acrylamide], the inhibition at 0.041 µM at EGFR (ErbB1) is over 50%. For the same compound, the IC50 was under 100 nM on EGFR (ErbB1); under 100 nM at EGFR (ErbB1) T790M L858R; under 100 nM on BTK; under 100 nM in the assay with HCC827 cells; 100 to 500 nM in the assay on H1975 cells.

As for `C=CC(=O)Nc1cccc(-c2cccc3cnc(Nc4ccc(N5CCN(C)CC5)cc4F)nc23)c1` [Example C044, N-(3-(2-((2-fluoro-4-(4-methylpiperazin-1-yl)phenyl)amino)quinazolin-8-yl)phenyl)acrylamide], at EGFR (ErbB1), the inhibition at 0.041 µM is over 50%. Besides, the IC50 on EGFR (ErbB1), at EGFR (ErbB1) T790M L858R, on BTK and in the assay on H1975 cells was under 100 nM throughout. Besides, the inhibition at 0.0137 µM on EGFR (ErbB1) T790M L858R was over 50%.

As for `C=CC(=O)Nc1cccc(-c2cccc3cnc(Nc4ccc(N5CCN(CCF)CC5)cc4)nc23)c1` [Example C053, N-(3-(2-((4-(4-(2-fluoroethyl)piperazin-1-yl)phenyl)amino)quinazolin-8-yl)phenyl)acrylamide], the inhibition at 0.041 µM at EGFR (ErbB1) is under 50%; on BTK it was over 50%. Further, the inhibition at 1 µM on EGFR (ErbB1) and at EGFR (ErbB1) T790M L858R was over 50% throughout. The inhibition at 0.0137 µM on EGFR (ErbB1) T790M L858R was over 50%. In addition, the IC50 with H1975 cells is under 100 nM.

With `C=CC(=O)Nc1cccc(-c2cccc3cnc(Nc4ccc(N5CCN(CCO)CC5)cc4)nc23)c1` [Example C059, N-(3-(2-((4-(4-(2-hydroxyethyl)piperazin-1-yl)phenyl)amino)quinazolin-8-yl)phenyl)acrylamide], the inhibition at 0.041 µM on EGFR (ErbB1) was over 50%. Further, the IC50 on EGFR (ErbB1), on EGFR (ErbB1) T790M L858R, on BTK, with HCC827 cells and with H1975 cells was under 100 nM each time.
